# In patent US9713613B2, “Methods and compositions for the treatment of cancer and related hyperproliferative disorders” (priority 2007, dated 2017):
# “Also recorded” adds a separate entry of the source.
# Tests used:
# SREBP-1 = experiment: Western blot of SREBP-1 processing in DU145 cells; type: cell-based, human; settings: 6 hrs, IGF1
# Protocol: To examine whether fatostatin A affects the proteolytic activation of SREBPs, whole cell lysates of DU145 cells treated with fatostatin A were analyzed by western blots with an antibody against the NH2 terminus of SREBP-1 (FIG. 3A). […] Similar results were obtained for SREBP-2 with an antibody against its COOH terminus (FIG. 3B).
# DU145 prostate cancer cells were seeded on a 6-well plate at a density of 2×10^5 cells/well in a serum-free MEM incubated at 37° C. for overnight. The cells were then treated with DMSO or fatostatin A ([…]) in presence of IGF1 (1 μg/mL). After 6 hrs of incubation, the cells were harvested in PBS and lysated in an SDS buffer. The samples were separated on a 10% SDS-PAGE gel and blotted by using rabbit anti-SREBP-1 and anti-SREBP-2 antibodies. The specific bands were visualized by using enhanced chemiluminescent (ECL) detection reagents (Amersham).
# ob/ob mice = experiment: ob/ob mice, four weeks daily ip treatment; type: in vivo
# Protocol: The study employed 4-5 week old male ob/ob mice of average weight of about 23 g/mouse. Fatostatin A (30 mg/kg/day) was delivered intraperitoneally daily, and body weight and food intake were measured. […] At the end of first week of treatment ob control mice injected with DMSO gained on average of 4.82 g/mouse (from 23.58±0.62 to 28.40±1.45), whereas the fatostatin treated group gained about 3.37 g/mouse (23.08±1.53 to 26.45±1.2 g/mouse), (p=0.03). After 28 days of treatment the fatostatin A treated group weighed about 12% less than the controls weeks (32.1±1.4 compared to 36.2±2.2 g/mouse […]) (P=0.02). The accumulative food intake was similar in both groups FIG. 8C).
# Four- to 5-week old homozygous male obese (ob/ob) mice (C57BL/6J, The Jackson Laboratory, Bar Harbor, Me.) were housed under controlled conditions (12-hr light/dark cycle; 25° C.). The animals were housed 5 per cage and had ad libitum access to standard laboratory chow (Purina Mills, Richmond Ind.) and water for one week after their arrival. On first day of the experiment and every day thereafter the weight of the mice and the amount of the food consumed were measured. The weight of mice and food remaining were measured daily between 3-5 p.m. before the ip injection of fatostatin A (30 mg/kg; 150 μL). The administration of Fatostatin A or 10% DMSO in PBS to control groups (n=5) continued daily for four weeks till the end of the study.
# After 28 days of daily injection of fatostatin A mice were fasted overnight and blood was withdrawn and Whole blood glucose and 3-hydroxybutyrate were measured with a Glucometer Precision Xtra (Abbott). For determination of serum constituents. Glucose, triglyceride and cholesterol measurements were done by the Comparative Pathology Laboratory (Baylor College of Medicine). Serum non-esterified fatty acids (NEFA) were measured by using NEFA C kit (Wako Chemicals, Richmond, Va.).
# Mice were sacrificed and weights of livers, and Epididymal fat pads were determined. Frozen sections of Liver slices from individual animals were stained with Oil Red O to visualize the fat droplets (TG) in liver slices as described earlier (Abu-Elheiga et al., 2001). The remaining liver tissues were frozen in liquid nitrogen and kept at −80° C. for further analysis.
# Liver triglyceride and cholesterol contents were carried out as described in the reference (Chandler, et al., 2003) using Cholesterol E Kit (Wako) and Infinity Triglyceride Kit (Thermo Electron, Melbourne, Australia), adapted for colorimetric analysis in 96-well plate format.
# A portion of the frozen liver was ground to powder in liquid nitrogen. The powdered tissues were suspended in 10 ml of PBS containing 0.1 mM PMSF, 5 mM benzamidine, and 5 mg/ml protease inhibitor cocktail (Roche), and homogenized using Polytron (3×30 Sec, at high speed) and sonicated briefly to degrade DNA. The extracts were clarified by centrifugation at 16,000×g for 20 min. Protein concentrations in the supernatant were determined, and subjected to western blot analysis using commercially available antibodies against the following enzymes: FAS (BD Biosciences), citrate lyase SCD1, FADS1, ACC and phospho-ACC antibodies. The proteins were visualized using Amersham ECL Plus™ Western Blotting Detection Reagents. The intensity of the specific bands of proteins of interest were scanned and normalized against beta-actin for quantifications. FAS and ACC activities from the liver extracts were determined as described earlier (Mao et al., 2006).
# Total RNA was prepared from mouse tissues using TRIzol reagent (Invitrogen). Equal amounts of RNA from 5 mice were pooled and treated with DNase I (Turbo DNA-free, Ambion, Inc.). First stranded cDNA was synthesized from 2 μg of DNase I-treated total RNA with random hexamer primer using Superscript II RNase H-reverse transcriptase (Invitrogen). […]
# [1] = western blot, normalized to actin
smiles,measurement,setting,value
"CCCc1cc(-c2nc(-c3ccc(C)cc3)cs2)ccn1 [Compound 1, 2-propyl-4-(4-p-tolylthiazol-2-yl)pyridine]",amounts of mature and precursor forms of SREBP-1 (western blot),SREBP-1,decreased the amounts of the 68 KDa mature form of SREBP-1 in a dose-dependent manner
same,toxicity during the treatment,"ob/ob mice; 30 mg/kg ip daily, four weeks",no obvious toxicity
same,body weight gain at the end of first week,"ob/ob mice; 30 mg/kg/day ip, control 4.82",about 3.37 g/mouse
same,body weight at the end of first week,"ob/ob mice; 30 mg/kg/day ip, from 23.08±1.53",26.45±1.2 g/mouse
same,decrease in serum HDL,ob/ob mice; 28 days,about 22%
same,decrease in serum LDL,ob/ob mice; 28 days,about 35%
same,increase of VLDL,ob/ob mice; 28 days,about 50%
same,serum non esterified free fatty acids (NEFA) higher than controls,ob/ob mice; 28 days,about 70%
same,serum triglycerides (TG) increase compared to controls,ob/ob mice; 28 days,about 30%
same,ketone bodies (hydroxy butyrate) increase compared to controls,"ob/ob mice; 28 days, blood, listed as fatostatin A",increased about seven fold; also recorded: seven fold increase
same,serum glucose,"ob/ob mice; 28 days, fasted mice, control 429.4±87",153.2 ± 30.5 mg/dL
same,serum glucose lower than controls,"ob/ob mice; 28 days, fasted mice, listed as fatostatin",~70%
same,serum glucose lower than controls,"ob/ob mice; 28 days, fasted mice, listed as fatostatin A",about 70%
same,ketone bodies (hydroxy butyrate),"ob/ob mice; 28 days, control 0.5±0.37",3.62 ± 1.41 mg/dL
same,serum NEFA,"ob/ob mice; 28 days, control 0.7±0.2",1.93±0.26 mEq/l
same,serum LDL,"ob/ob mice; 28 days, control 48±8",31±3
same,serum triglycerides (TG),"ob/ob mice; 28 days, control 79±12",115±11
same,serum HDL,"ob/ob mice; 28 days, control 183±12",144±11
same,serum total cholesterol,"ob/ob mice; 28 days, control 219±18",183 ± 16 mg/dL
same,body weight less than controls,ob/ob mice; after 28 days of treatment,about 12%
same,body weight,"ob/ob mice; after 28 days of treatment, control 36.2±2.2",32.1±1.4 g/mouse
same,food intake,"ob/ob mice; average over 28 days, control 5.9±1.4",5.4±1.5 g/mouse·day
same,VLDL,"ob/ob mice; calculated based on TG levels, control 15.8±2.4",23.1 ± 2.3 mg/dL
same,average daily food intake,ob/ob mice; control 5.9+1.4,5.4+1.5 g/mouse/d
same,average weight of epididymal fat pads less than controls,ob/ob mice; four weeks,about 20%
same,decrease of ACC activity in liver extracts,ob/ob mice; four weeks,about 40%
same,reduction of FAS activity in liver extracts,ob/ob mice; four weeks,more than 70%
same,reduction of TG levels in livers,ob/ob mice; four weeks,about 65%
same,reduction of cholesterol levels in liver,ob/ob mice; four weeks,more than 20%
same,average weight of livers,"ob/ob mice; four weeks, control 2.34±0.15",1.59±0.2
same,cholesterol levels in liver,"ob/ob mice; four weeks, control 3.6±0.1",2.8±0.5
same,average weight of epididymal fat pads,"ob/ob mice; four weeks, control 3.6±0.2",2.7±0.1
same,ACC activity in liver extracts,"ob/ob mice; four weeks, control 5.55±0.57",3.44±0.44 n mol/min·mg
same,FAS activity in liver extracts,"ob/ob mice; four weeks, control 22.6±1.37",8.64±1.91 n mol/min·mg
same,TG levels in livers,"ob/ob mice; four weeks, control 38.7±6.0",14.8±3.7 mg/gram liver
same,average weight of livers less than controls,"ob/ob mice; four weeks, listed as fatostatin",~32%
same,average weight of livers less than controls,"ob/ob mice; four weeks, listed as fatostatin A",about 32%
same,reduction of PPAR γ mRNA level in liver,ob/ob mice; real time PCR,about 40%
same,"reduction in the mRNA levels of ACC1, FAS and SCD1 in liver","ob/ob mice; real time PCR, normalized to actin",about 80%
same,protein level of FADS 1 or Δ5 Desaturase in liver,ob/ob mice; western blot,did not change
same,reduction of ACL protein level in liver extracts,ob/ob mice; [1],about 70%
same,reduction of SCD1 protein level in liver extracts,ob/ob mice; [1],about 50%
